Source: patent US8614218B2, “Fused bicyclic pyrimidines” (Bayer Intellectual Property GmbH, priority 2007, dated 2013)
pIC50: −log10 of the molar value.

Experiments:
[1] = tested on: A549 cells; assay: Cellular proliferation/cytotoxicity assay (Alamar Blue), A549; type: cell-based; details: Homo sapiens, 72 h, Alamar Blue (Resazurin), read-out: Anti-proliterative/Cytotoxic activity (A549 cells)
Method: (§1) Cellular Proliferation/Cytotoxicity Assay:
(§2) The anti-proliferative activity of the compounds as described herein, is evaluated using the OvCAR3, HCT116 and A549 cell lines and the Alamar Blue (Resazurin) cell viability assay (O'Brien et al. Eur J Biochem 267, 5421-5426, 2000). Resazurin is reduced to the fluorescent resorufin by cellular dehydrogenase activity, correlating with viable, proliferating cells. Test compounds are dissolved as 10 mM solutions in DMSO and subsequently diluted. Cells like HCT116 or A549 cells were seeded into 96 well flat bottom plates at a density of 10000 cells/well (OvCAR3 cells), 1000 cells/well (HCT116 cells) or 2000 cells/well (A549 cells) in a volume of 200 μl/well. 24 hours after seeding, 1 μl each of the compound dilutions are added into each well of the 96 well plates. Each compound dilution is tested as at least as duplicates. Wells containing untreated control cells were filled with 200 μl DMEM (Dulbecco's Modified Eagle Medium) containing 0.5 vol % v:v DMSO. The cells are then incubated with the substances for 72 h at 37° C. in a humidified atmosphere containing 5 vol % CO2. To determine the viability of the cells, 20 μl of a Resazurin solution (90 mg/l) are added. After 4 h incubation at 37° C., the fluorescence is measured by extinction at λ=544 nm and an emission of λ=590 nm (Wallac Victor2; Perkin Elmer, USA). For the calculation of the cell viability, the emission value from untreated cells is set as 100% viability and the fluorescence intensity of treated cells are set in relation to the values of untreated cells. Viabilities are expressed as % values. The corresponding IC50 values of the compounds for cytotoxic activity are determined from the concentration-effect curves by means of non-linear regression. The analysis of the data is performed using a biostatistical program (GraphPad Prism, USA).
(§3) Representative IC50 values for anti-proliferative/cytotoxic potency determined in the aforementioned assay follow from the following table, in which the numbers of the compound correspond to the numbers of the examples.

[2] = tested on: OvCAR3 cells; assay: Cellular proliferation/cytotoxicity assay (Alamar Blue), OvCAR3; type: cell-based; details: Homo sapiens, OVCAR-3, 72 h, Alamar Blue (Resazurin), read-out: Anti-proliferative/Cytotoxic activity (OvCAR3 cells)
Method: as §1, §2, §3

Row | Structure (SMILES) | pIC50 [1] | pIC50 [2]
1 | N#Cc1cnc2nc(-c3ccc(CN4CCC(c5n[nH]c(-c6ccccn6)n5)CC4)cc3)c(-c3ccccc3)cn12 [Example 8, 6-phenyl-7-(4-{[4-(5-pyridin-2-yl-1,2,4-triazol-3-yl)piperidin-1-yl]methyl}phenyl)imidazo[1,2-a]pyrimidine-3-carbonitrile] | < 5.00 | > 5.00
2 | c1ccc(-c2cn3ccnc3nc2-c2ccc(CN3CCC(c4n[nH]c(-c5ccncc5)n4)CC3)cc2)cc1 [Example 6, 6-phenyl-7-(4-{[4-(5-pyridin-4-yl-1,2,4-triazol-3-yl)piperidin-1-yl]methyl}phenyl)imidazo[1,2-a]pyrimidine] | > 5.00 | > 5.00
3 | CNc1c(-c2ccccc2)c(-c2ccc(CN3CCC(c4n[nH]c(-c5ccccn5)n4)CC3)cc2)nc2nccn12 [Example 10, N-methyl-6-phenyl-7-(4-{[4-(5-pyridin-2-yl-1,2,4-triazol-3-yl)piperidin-1-yl]methyl}phenyl)imidazo[1,2-a]pyrimidin-5-amine] | < 5.00 | > 5.00
4 | Cc1cnc2nc(-c3ccc(CN4CCC(c5n[nH]c(-c6ccccn6)n5)CC4)cc3)c(-c3ccccc3)cn12 [Example 14, 3-methyl-6-phenyl-7-(4-{[4-(5-pyridin-2-yl-1,2,4-triazol-3-yl)piperidin-1-yl]methyl}phenyl)imidazo[1,2-a]pyrimidine] | > 5.00 | > 5.00
5 | CCOC(=O)c1cn2cc(-c3ccccc3)c(-c3ccc(CN4CCC(c5n[nH]c(-c6ccccn6)n5)CC4)cc3)nc2n1 [Example 16, Ethyl 6-phenyl-7-(4-{[4-(5-pyridin-2-yl-1,2,4-triazol-3-yl)piperidin-1-yl]methyl}phenyl)imidazo[1,2-a]pyrimidine-2-carboxylate] | < 5.00 | > 5.00
6 | Cc1nc2nc(-c3ccc(CN4CCC(c5n[nH]c(-c6ccccn6)n5)CC4)cc3)c(-c3ccccc3)cn2n1 [Example 3, 2-methyl-6-phenyl-5-(4-{[4-(5-pyridin-2-yl-1,2,4-triazol-3-yl)piperidin-1-yl]methyl}phenyl)[1,2,4]triazolo[1,5-a]pyrimidine] | > 5.00 | > 5.00
7 | c1ccc(-c2cn3ccnc3nc2-c2ccc(CN3CCC(c4cc(-c5ccccn5)n[nH]4)CC3)cc2)cc1 [Example 5, 6-phenyl-7-(4-{[4-(3-pyridin-2-yl-pyrazol-5-yl)piperidin-1-yl]methyl}phenyl)imidazo[1,2-a]pyrimidine] | > 5.00 | > 5.00
8 | c1ccc(-c2cn3ccnc3nc2-c2ccc(CN3CCC(n4cnc(-c5ccccn5)c4)CC3)cc2)cc1 [Example 20, 6-phenyl-7-(4-{[4-(4-pyridin-2-yl-imidazol-1-yl)piperidin-1-yl]methyl}phenyl)imidazo[1,2-a]pyrimidine] | < 5.00 | > 5.00
9 | Fc1cnc2nc(-c3ccc(CN4CCC(c5n[nH]c(-c6ccccn6)n5)CC4)cc3)c(-c3ccccc3)cn12 [Example 9, 3-fluoro-6-phenyl-7-(4-{[4-(5-pyridin-2-yl-1H-1,2,4-triazol-3-yl)piperidin-1-yl]methyl}phenyl)imidazo[1,2-a]pyrimidine] | < 5.00 | > 5.00
10 | Clc1cnc2nc(-c3ccc(CN4CCC(c5n[nH]c(-c6ccccn6)n5)CC4)cc3)c(-c3ccccc3)cn12 [Example 12, 3-chloro-6-phenyl-7-(4-{[4-(5-pyridin-2-yl-1,2,4-triazol-3-yl)piperidin-1-yl]methyl}phenyl)imidazo[1,2-a]pyrimidine] | > 5.00 | > 5.00
11 | CCc1cn2cc(-c3ccccc3)c(-c3ccc(CN4CCC(c5n[nH]c(-c6ccccn6)n5)CC4)cc3)nc2n1 [Example 17, 2-ethyl-6-phenyl-7-(4-{[4-(5-pyridin-2-yl-1,2,4-triazol-3-yl)piperidin-1-yl]methyl}phenyl)imidazo[1,2-a]pyrimidine] | > 5.00 | > 5.00
12 | c1ccc(-c2cn3ncnc3nc2-c2ccc(CN3CCC(c4n[nH]c(-c5ccccn5)n4)CC3)cc2)cc1 [Example 2, 6-phenyl-5-(4-{[4-(5-pyridin-2-yl-1,2,4-triazol-3-yl)piperidin-1-yl]methyl}phenyl)[1,2,4]triazolo[1,5-a]pyrimidine] | < 5.00 | > 5.00
13 | CCc1cnc2nc(-c3ccc(CN4CCC(c5n[nH]c(-c6ccccn6)n5)CC4)cc3)c(-c3ccccc3)cn12 [Example 22, 3-ethyl-6-phenyl-7-(4-{[4-(5-pyridin-2-yl-1,2,4-triazol-3-yl)piperidin-1-yl]methyl}phenyl)imidazo[1,2-a]pyrimidine] | < 5.00 | > 5.00
14 | c1ccc(-c2cn3ccnc3nc2-c2ccc(CN3CCC(c4n[nH]c(-c5cnccn5)n4)CC3)cc2)cc1 [Example 21, 6-phenyl-7-(4-{[4-(5-pyrazin-2-yl-1,2,4-triazol-3-yl)piperidin-1-yl]methyl}phenyl)imidazo[1,2-a]pyrimidine] | < 5.00 | > 5.00
15 | C=Cc1cnc2nc(-c3ccc(CN4CCC(c5n[nH]c(-c6ccccn6)n5)CC4)cc3)c(-c3ccccc3)cn12 [Example 15, 6-phenyl-7-(4-{[4-(5-pyridin-2-yl-1,2,4-triazol-3-yl)piperidin-1-yl]methyl}phenyl)-3-vinylimidazo[1,2-a]pyrimidine] | < 5.00 | > 5.00
16 | c1ccc(-c2cn3nccc3nc2-c2ccc(CN3CCC(c4n[nH]c(-c5ccccn5)n4)CC3)cc2)cc1 [Example 19, 6-phenyl-5-(4-{[4-(5-pyridin-2-yl-1,2,4-triazol-3-yl)piperidin-1-yl]methyl}phenyl)pyrazolo[1,5-a]pyrimidine] | < 5.00 | > 5.00
17 | c1ccc(-c2cn3ccnc3nc2-c2ccc(CN3CCC(c4n[nH]c(-c5ncccn5)n4)CC3)cc2)cc1 [Example 18, 6-phenyl-7-(4-{[4-(5-pyrimidin-2-yl-1,2,4-triazol-3-yl)piperidin-1-yl]methyl}phenyl)imidazo[1,2-a]pyrimidine] | < 5.00 | > 5.00
18 | Brc1cnc2nc(-c3ccc(CN4CCC(c5n[nH]c(-c6ccccn6)n5)CC4)cc3)c(-c3ccccc3)cn12 [Example 11, 3-bromo-6-phenyl-7-(4-{[4-(5-pyridin-2-yl-1,2,4-triazol-3-yl)piperidin-1-yl]methyl}phenyl)imidazo[1,2-a]pyrimidine] | < 5.00 | > 5.00
19 | c1ccc(-c2cn3ccnc3nc2-c2ccc(CN3CCC(c4n[nH]c(-c5ccccn5)n4)CC3)cc2)cc1 [Example 85, 6-phenyl-7-{4-[4-(5-pyridin-2-yl-1H-[1,2,4]triazol-3-yl)-piperidin-1-ylmethyl]-phenyl}-imidazo[1,2-a]pyrimidine] | < 5.00 | –
20 | COc1ccnc(-c2nc(C3CCN(Cc4ccc(-c5nc6nccn6cc5-c5ccccc5)cc4)CC3)n[nH]2)c1 [Example 84, 7-[4-({4-[5-(4-methoxypyridin-2-yl)-1H-1,2,4-triazol-3-yl]piperidin-1-yl}methyl)phenyl]-6-phenylimidazo[1,2-a]pyrimidine] | > 5.00 | –
21 | Cc1nc2nc(-c3ccc(CN4CCC(c5cc(-c6ccccn6)n[nH]5)CC4)cc3)c(-c3ccccc3)cn2n1 [Example 46, 2-Methyl-6-phenyl-5-(4-{[4-(3-pyridin-2-yl-1H-pyrazol-5-yl)piperidin-1-yl]methyl}phenyl)[1,2,4]triazolo[1,5-a]pyrimidine] | < 5.00 | –
22 | Nc1nc2nc(-c3ccc(CN4CCC(c5n[nH]c(-c6ccccn6)n5)CC4)cc3)c(-c3ccccc3)cn2n1 [Example 67, 6-Phenyl-5-(4-{[4-(5-pyridin-2-yl-1H-1,2,4-triazol-3-yl)piperidin-1-yl]methyl}phenyl)[1,2,4]triazolo[1,5-a]pyrimidin-2-amine] | > 5.00 | –
23 | c1ccc(-c2cn3ccnc3nc2-c2ccc(CN3CCC(c4nc(-c5ccc[nH]5)n[nH]4)CC3)cc2)cc1 [Example 68, 6-Phenyl-7-[4-({4-[3-(1H-pyrrol-2-yl)-1H-1,2,4-triazol-5-yl]piperidin-1-yl}methyl)phenyl]imidazo[1,2-a]pyrimidine] | > 5.00 | –
24 | Cc1nc2nc(-c3ccc(CN4CCC(c5nc(-c6ccccc6)n[nH]5)CC4)cc3)c(-c3ccccc3)cn2n1 [Example 83, 2-methyl-6-phenyl-5-(4-{[4-(3-phenyl-1H-1,2,4-triazol-5-yl)piperidin-1-yl]methyl}phenyl)[1,2,4]triazolo[1,5-a]pyrimidine] | < 5.00 | –
25 | Cc1cccc(-c2n[nH]c(C3CCN(Cc4ccc(-c5nc6ccnn6cc5-c5ccccc5)cc4)CC3)n2)n1 [Example 75, 5-[4-({4-[3-(6-Methylpyridin-2-yl)-1H-1,2,4-triazol-5-yl]piperidin-1-yl}methyl)phenyl]-6-phenylpyrazolo[1,5-a]pyrimidine] | > 5.00 | –
